From ChEMBL document CHEMBL4196051, “Pyrazole-pyrazoline as promising novel antimalarial agents: A mechanistic study” (Eur J Med Chem, 2018)

Key:
Heme [1] = test: Inhibition of heme crystal growth
Plasmodium falciparum [2] = test: Antimalarial activity against chloroquine-sensitive Plasmodium falciparum 3D7 infected in red blood cells assessed as reduction in mature schizonts formation after 24 hrs by Giemsa-staining based assay; type: functional, organism-based; conditions: 3D7, 24 h
[3] = Cytotoxicity against African green monkey Vero cells assessed as reduction in cell viability after 72 hrs by MTT assay; type: cell-based; conditions: chlorocebus sabaeus
[4] = Selectivity index, ratio of CC50 for African green monkey Vero cells to EC50 for chloroquine-sensitive Plasmodium falciparum 3D7; type: toxicity; conditions: read-out: Ratio CC50/EC50
[5] = Selectivity index, ratio of CC50 for African green monkey Vero cells to EC50 for chloroquine-resistant Plasmodium falciparum RKL9; type: toxicity; conditions: read-out: Ratio CC50/EC50
Plasmodium falciparum [6] = test: Antimalarial activity against chloroquine-resistant Plasmodium falciparum RKL9 infected in red blood cells assessed as reduction in mature schizonts formation after 24 hrs by Giemsa-staining based assay; type: functional, organism-based; conditions: RKL9, 24 h
[7] = Resistance Index, ratio of EC50 for chloroquine-resistant Plasmodium falciparum RKL9 to EC50 for chloroquine-sensitive Plasmodium falciparum 3D7; type: functional
Plasmodium falciparum [8] = test: Antimalarial activity against chloroquine-resistant Plasmodium falciparum W2 after 48 hrs by LDH assay; type: functional, organism-based; conditions: W2, 48 h
Plasmodium falciparum [9] = test: Antimalarial activity against chloroquine-sensitive Plasmodium falciparum 3D7 infected in red blood cells assessed as reduction in mature schizonts formation after 72 hrs by Giemsa-staining based assay; type: functional, organism-based; conditions: 3D7, 72 h
Plasmodium falciparum [10] = test: Antimalarial activity against Plasmodium falciparum; type: functional, organism-based
Plasmodium berghei [11] = test: Antimalarial activity against Plasmodium berghei NK65 infected in Swiss albino mouse assessed as reduction in parasitemia at 25 mg/kg, po treated up to day 3 measured at day 4 by Giemsa-staining based microscopic analysis relative to control; type: functional; parameters: scale not given: the % may be the effect or the level left
Plasmodium berghei [12] = test: Antimalarial activity against Plasmodium berghei NK65 infected in Swiss albino mouse assessed as reduction in parasitemia at 50 mg/kg, po treated up to day 3 measured at day 4 by Giemsa-staining based microscopic analysis relative to control; type: functional; parameters: scale not given: the % may be the effect or the level left
Plasmodium berghei [13] = test: Antimalarial activity against Plasmodium berghei NK65 infected in Swiss albino mouse assessed as mean survival days at 25 mg/kg, po treated up to day 3 measured over 30 days (reference value: 7.2 days); type: functional
Plasmodium berghei [14] = test: Antimalarial activity against Plasmodium berghei NK65 infected in Swiss albino mouse assessed as mean survival days at 50 mg/kg, po treated up to day 3 measured over 30 days (reference value: 7.2 days); type: functional
Heme [15] = test: Binding affinity to monomeric heme in DMSO/HEPES buffer solution at pH 7.4 by titration analysis
Heme [16] = test: Binding affinity to monomeric heme in DMSO/HEPES buffer solution at pH 5.6 by titration analysis
mu-oxodimeric heme = test: Binding affinity to mu-oxodimeric heme in 0.1M NaOH solution at pH 5.8 by titration analysis
Plasmodium berghei [17] = test: Antimalarial activity against Plasmodium berghei NK65 infected in Swiss albino mouse assessed as reduction in parasitemia at 5 mg/kg, po treated up to day 3 measured at day 4 by Giemsa-staining based microscopic analysis relative to control; type: functional; parameters: scale not given: the % may be the effect or the level left
Plasmodium berghei [18] = test: Antimalarial activity against Plasmodium berghei NK65 infected in Swiss albino mouse assessed as mean survival days at 5 mg/kg, po treated up to day 3 measured over 30 days (reference value: 7.2 days); type: functional

Question: Which IC50 (Heme [1]) does the source give for `Clc1ccc(COC(Cn2ccnc2)c2ccc(Cl)cc2Cl)c(Cl)c1` (configuration not stated) [MICONAZOLE] here?
Answer: 21.4 µM

Question: With `NS(=O)(=O)c1ccc(N2N=C(c3ccc(Cl)cc3)CC2c2cn(-c3ccccc3)nc2-c2ccccc2)cc1` (configuration not stated) as the compound, how does the EC50 (Plasmodium falciparum [2]) read?
Answer: 3.35 µM

Question: What about the CC50 at 72 h [3] of the same compound?
Answer: > 207 µM

Question: And the selectivity ratio [4]?
Answer: > 111

Question: What about the selectivity ratio [5] of the same compound?
Answer: > 111

Question: For `COc1ccc(C2=NN(c3ccc(S(N)(=O)=O)cc3)C(c3cn(-c4ccccc4)nc3-c3ccc(Cl)cc3)C2)cc1` (configuration not stated), which EC50 (Plasmodium falciparum [2]) is on record?
Answer: 1.61 µM

Question: And the EC50 (Plasmodium falciparum [6])?
Answer: 2.12 µM

Question: What about the Ratio EC50 [7] of the same compound?
Answer: 1.31

Question: What about the CC50 at 72 h [3] of the same compound?
Answer: 31.3 µM

Question: And the selectivity ratio [4]?
Answer: 33.2

Question: And the selectivity ratio [5]?
Answer: 33.2

Question: With `COc1ccc(C2=NN(c3ccc(S(N)(=O)=O)cc3)C(c3cn(-c4ccccc4)nc3-c3ccc(F)cc3)C2)cc1` (configuration not stated) as the compound, how does the EC50 (Plasmodium falciparum [2]) read?
Answer: 1.65 µM

Question: What about the EC50 (Plasmodium falciparum [6]) of the same compound?
Answer: 2.04 µM

Question: What about the Ratio EC50 [7] of the same compound?
Answer: 1.44

Question: What about the CC50 at 72 h [3] of the same compound?
Answer: > 53.1 µM

Question: And the selectivity ratio [4]?
Answer: > 56.4

Question: And the selectivity ratio [5]?
Answer: > 56.4

Question: With `Cc1ccc(-c2nn(-c3ccccc3)cc2C2CC(c3ccccc3)=NN2c2ccc(S(N)(=O)=O)cc2)cc1` (configuration not stated) as the compound, how does the EC50 (Plasmodium falciparum [2]) read?
Answer: 2.97 µM

Question: What about the CC50 at 72 h [3] of the same compound?
Answer: > 162 µM

Question: What about the selectivity ratio [4] of the same compound?
Answer: > 98

Question: What about the selectivity ratio [5] of the same compound?
Answer: > 98

Question: With `Cc1ccc(C2=NN(c3ccc(S(N)(=O)=O)cc3)C(c3cn(-c4ccccc4)nc3-c3ccc(F)cc3)C2)cc1` (configuration not stated) as the compound, how does the EC50 (Plasmodium falciparum [2]) read?
Answer: 2.23 µM

Question: And the CC50 at 72 h [3]?
Answer: > 90.7 µM

Question: What about the selectivity ratio [4] of the same compound?
Answer: > 73.2

Question: And the selectivity ratio [5]?
Answer: > 73.2

Question: What does the source list for `NS(=O)(=O)c1ccc(N2N=C(c3ccc(F)cc3)CC2c2cn(-c3ccccc3)nc2-c2ccccc2)cc1` (configuration not stated)?
Answer: EC50 (Plasmodium falciparum [2]): 6.67 µM; CC50 at 72 h [3]: > 807 µM; selectivity ratio [4]: > 225; selectivity ratio [5]: > 225

Question: With `NS(=O)(=O)c1ccc(N2N=C(c3ccc(Cl)cc3Cl)CC2c2cn(-c3ccccc3)nc2-c2ccccc2)cc1` (configuration not stated) as the compound, how does the EC50 (Plasmodium falciparum [2]) read?
Answer: 4.58 µM

Question: And the CC50 at 72 h [3]?
Answer: > 438 µM

Question: And the selectivity ratio [4]?
Answer: > 162

Question: What about the selectivity ratio [5] of the same compound?
Answer: > 162

Question: Which EC50 (Plasmodium falciparum [2]) does the source give for `NS(=O)(=O)c1ccc(N2N=C(c3ccc(O)cc3)CC2c2cn(-c3ccccc3)nc2-c2ccc(F)cc2)cc1` (configuration not stated) here?
Answer: 1.57 µM

Question: What about the EC50 (Plasmodium falciparum [6]) of the same compound?
Answer: 2.02 µM

Question: What about the Ratio EC50 [7] of the same compound?
Answer: 1.29

Question: What about the CC50 at 72 h [3] of the same compound?
Answer: 32 µM

Question: What about the selectivity ratio [4] of the same compound?
Answer: 36.9

Question: What about the selectivity ratio [5] of the same compound?
Answer: 36.9

Question: Which IC50 (Plasmodium falciparum [8]) does the source give for `C[n+]1c2ccc(Br)cc2cc2[nH]c3ccc(Br)cc3c21` here?
Answer: 4 µM

Question: What does the source list for `COc1cccc(C2=NN(c3ccc(S(N)(=O)=O)cc3)C(c3cn(-c4ccccc4)nc3-c3ccc(C)cc3)C2)c1OC` (configuration not stated)?
Answer: EC50 (Plasmodium falciparum [2]): 1.61 µM; EC50 (Plasmodium falciparum [6]): 1.55 µM; Ratio EC50 [7]: 0.97; CC50 at 72 h [3]: > 57.4 µM; selectivity ratio [4]: > 60; selectivity ratio [5]: > 60

Question: For `COc1ccc(/C=C(\C#N)c2nc3ccccc3[nH]2)cc1`, which IC50 (Plasmodium falciparum [9]) is on record?
Answer: 0.069 µM

Question: For `NS(=O)(=O)c1ccc(N2N=C(c3ccc(O)cc3)CC2c2cn(-c3ccccc3)nc2-c2ccccc2)cc1` (configuration not stated), which EC50 (Plasmodium falciparum [2]) is on record?
Answer: 3.05 µM

Question: And the CC50 at 72 h [3]?
Answer: > 161 µM

Question: What about the selectivity ratio [4] of the same compound?
Answer: > 98

Question: And the selectivity ratio [5]?
Answer: > 98

Question: With `COc1ccc(C2=NN(c3ccc(S(N)(=O)=O)cc3)C(c3cn(-c4ccccc4)nc3-c3ccc(OC)cc3)C2)cc1` (configuration not stated) as the compound, how does the EC50 (Plasmodium falciparum [2]) read?
Answer: 2.26 µM

Question: And the CC50 at 72 h [3]?
Answer: 104 µM

Question: What about the selectivity ratio [4] of the same compound?
Answer: 78.9

Question: And the selectivity ratio [5]?
Answer: 78.9

Question: For `COc1ccc(C2=NN(c3ccc(S(N)(=O)=O)cc3)C(c3cn(-c4ccccc4)nc3-c3ccccc3)C2)cc1` (configuration not stated), which EC50 (Plasmodium falciparum [2]) is on record?
Answer: 1.42 µM

Question: What about the EC50 (Plasmodium falciparum [6]) of the same compound?
Answer: 1.78 µM

Question: And the Ratio EC50 [7]?
Answer: 1.25

Question: And the CC50 at 72 h [3]?
Answer: 40.2 µM

Question: What about the selectivity ratio [4] of the same compound?
Answer: 51.4

Question: What about the selectivity ratio [5] of the same compound?
Answer: 51.4

Question: With `Clc1ccccc1C(c1ccccc1)(c1ccccc1)n1ccnc1` [CLOTRIMAZOLE] as the compound, how does the IC50 (Plasmodium falciparum [10]) read?
Answer: 12.9 µM

Question: For `COc1ccc(C2=NN(c3ccc(S(N)(=O)=O)cc3)C(c3cn(-c4ccccc4)nc3-c3ccc(C)cc3)C2)cc1` (configuration not stated), which EC50 (Plasmodium falciparum [2]) is on record?
Answer: 1.38 µM

Question: And the EC50 (Plasmodium falciparum [6])?
Answer: 1.31 µM

Question: And the Ratio EC50 [7]?
Answer: 0.94

Question: What about the CC50 at 72 h [3] of the same compound?
Answer: > 36.6 µM

Question: What about the selectivity ratio [4] of the same compound?
Answer: > 46.8

Question: And the selectivity ratio [5]?
Answer: > 46.8

Question: What about the Activity (Plasmodium berghei [11]) of the same compound?
Answer: 68.42%

Question: What about the Activity (Plasmodium berghei [12]) of the same compound?
Answer: 82.49%

Question: And the MSD (Plasmodium berghei [13])?
Answer: 13.4 days

Question: What about the MSD (Plasmodium berghei [14]) of the same compound?
Answer: 19.8 days

Question: And the log K (Heme [15])?
Answer: 5.12

Question: What about the log K (Heme [16]) of the same compound?
Answer: 5.58

Question: And the log K (mu-oxodimeric heme)?
Answer: 5.19

Question: Which EC50 (Plasmodium falciparum [2]) does the source give for `Cc1ccc(C2=NN(c3ccc(S(N)(=O)=O)cc3)C(c3cn(-c4ccccc4)nc3-c3ccc(C)cc3)C2)cc1` (configuration not stated) here?
Answer: 1.43 µM

Question: What about the EC50 (Plasmodium falciparum [6]) of the same compound?
Answer: 1.64 µM

Question: What about the Ratio EC50 [7] of the same compound?
Answer: 1.14

Question: What about the CC50 at 72 h [3] of the same compound?
Answer: > 41.5 µM

Question: And the selectivity ratio [4]?
Answer: > 52.8

Question: And the selectivity ratio [5]?
Answer: > 52.8

Question: For `NS(=O)(=O)c1ccc(N2N=C(c3ccc(Cl)cc3)CC2c2cn(-c3ccccc3)nc2-c2ccc(Cl)cc2)cc1` (configuration not stated), which EC50 (Plasmodium falciparum [2]) is on record?
Answer: 2.8 µM

Question: And the CC50 at 72 h [3]?
Answer: > 164 µM

Question: And the selectivity ratio [4]?
Answer: > 99

Question: And the selectivity ratio [5]?
Answer: > 99

Question: With `NS(=O)(=O)c1ccc(N2N=C(c3ccc(Br)cc3)CC2c2cn(-c3ccccc3)nc2-c2ccc(F)cc2)cc1` (configuration not stated) as the compound, how does the EC50 (Plasmodium falciparum [2]) read?
Answer: 3.08 µM

Question: What about the CC50 at 72 h [3] of the same compound?
Answer: 49.4 µM

Question: What about the selectivity ratio [4] of the same compound?
Answer: 25.9

Question: And the selectivity ratio [5]?
Answer: 25.9

Question: For `CCN(CC)CCCC(C)Nc1ccnc2cc(Cl)ccc12` (configuration not stated) [CHLOROQUINE], which EC50 (Plasmodium falciparum [2]) is on record?
Answer: 2.97 µM

Question: What about the EC50 (Plasmodium falciparum [6]) of the same compound?
Answer: 11.2 µM

Question: What about the Activity (Plasmodium berghei [17]) of the same compound?
Answer: 97.1%

Question: And the MSD (Plasmodium berghei [18])?
Answer: 30 days

Question: Which EC50 (Plasmodium falciparum [2]) does the source give for `NS(=O)(=O)c1ccc(N2N=C(c3ccc(F)cc3)CC2c2cn(-c3ccccc3)nc2-c2ccc(F)cc2)cc1` (configuration not stated) here?
Answer: 6.36 µM

Question: What about the CC50 at 72 h [3] of the same compound?
Answer: > 753 µM

Question: And the selectivity ratio [4]?
Answer: > 212

Question: And the selectivity ratio [5]?
Answer: > 212
